PMC9823006 (Nature Communications, 2023)
“And” between values parts separate entries of the source, which are not always exact repeats. Equal values may be shown once. Read-outs that look alike come from different tables or passages of the source.

What was measured:
[1] = biological target: T1, KalbSec14 (Rattus norvegicus, UniProt P97924, N62Y/T46S); assay: NMR chemical shift perturbation (CSP) titration, 1H-15N HSQC; assay type: binding
T1 construct: His6 (TEV-cleavable) (N, cleaved yes); made in house; host or cells: E. coli BL21(DE3)
Experimental: (§1) ^1H-^15N HSQC spectra of the uniformly ^15N-labeled Kal^bSec14 and Kal^Sec14 were recorded at 25 °C on an Agilent VNMRS 800 MHz (^1H) spectrometer equipped with a cryogenic probe. ^1H-^15N HSQC spectra of the uniformly ^15N-labeled Kal^bSec14 mutants were recorded using the TopSpin software (https://www.bruker.com/en/products-and-solutions/mr/nmr-software/topspin.html) at 25 °C on a Bruker Avance NEO 600 MHz spectrometer equipped with a cryogenic probe. All detergents and lipids used in this study were purchased from Cube Biotech Inc. (Wayne, Pennsylvania) and Avanti Polar Lipids, Inc. (Alabaster, Alabama), respectively; details are listed in Supplementary Table 2. After collecting an initial protein-only spectrum with a starting protein concentration of 0.4 mM, each detergent or lipid was dissolved in the same NMR buffer and gradually added to the protein until no further CSP was observed. Each series usually comprised 8-12 titration points, with ligand concentrations ranging from 0 to 8 mM and final protein:ligand ratios from 1:7 to 1:25 (the protein concentration in each mixture during titration was confirmed by UV-vis absorbance at 280 nm). The HSQC spectrum was recorded for each titration point using the same instrument setup as that of the apo protein. All spectra were processed with NMRPipe[59], and peak heights and locations were analyzed in CcpNmr Analysis[60].
(§2) For each titration series, observed CSPs for a single amino acid residue were calculated using the combined shift change (Δδ) of the backbone amide nitrogen and proton based on the equation △δ(ppm)=[△δH2+(α⋅△δN)^2] , where ΔδH and ΔδN are the ^1H and ^15N chemical shift differences between the free and bound states, respectively, and α denotes the chemical shift scaling factor for ^15N[63].
(§3) In each titration series, the peaks for all residues were ranked based on the CSP observed upon titration at the highest ligand concentration. […] The well-resolved and non-overlapped CSPs, usually including most of the 2σ CSPs and some of the 1σ CSPs, were then plotted as a function of the ligand concentration and the dissociation constant (KD) was extracted by nonlinear least-square fitting of the following equation: △δobs=△δmax(KD+[L]t+[P]t)−(KD+[L]t+[P]t)^2−4[L]t[P]t/2[P]t , where [P]t and [L]t are the total protein and ligand concentrations, respectively, and △δmax is the chemical shift difference at saturation. The bound fraction plotted as the y-axis in the Figures was defined as △δobs/△δmax based on the average of the normalized CSPs from all the selected peaks. Titration data for each residue and each peak used for KD calculations are provided in the Source Data file.

[2] = biological target: T2, Kal^Sec14 (Rattus norvegicus, UniProt P97924, N62Y/T46S); assay: as above; assay type: binding
T2 construct: 19.4 kDa); His6 (TEV-cleavable) (N, cleaved yes); made in house; host or cells: E. coli BL21(DE3)
Experimental: as §1, §2, §3

[3] = biological target: T1, KalbSec14; assay: Isothermal titration calorimetry (preliminary); assay type: binding; conditions: data not shown; authors' response in peer review file; read-out: estimated KD from preliminary ITC data
[4] = test system: Kal^cSec14; conditions: previous studies; cited from earlier work
[5] = biological target: T2, Kal^Sec14; assay: Liposome flotation binding assay (Accudenz gradient, Western blot); conditions: Suppl. Fig. 9b,c
Experimental: (§4) The synthetic and natural lipids used in flotation assays were purchased from Avanti Polar Lipids, Inc. (Supplementary Table 2). All powdered lipids were dissolved in chloroform per the manufacturer’s instructions. Liposomes were prepared as previously described. […] Individual test lipids were dried together with the control lipid mix under a nitrogen stream and lyophilized overnight. Each dried lipid film was reconstituted to a final concentration of 1 mM in HN buffer containing 20 mM HEPES (pH 7.4) and 150 mM NaCl. Each final lipid mixtures consisted of 52% DOPC, 20% DOPE, 5% DOPS, 15% cholesterol and 8% tested lipid; inclusion of a trace amount of fluorescent lipid (Liss Rhod PE) allowed for localization of liposomes following gradient fractionation (see below). Each lipid mixture underwent five freeze-thaw cycles separated by vigorous vortexing each time it was thawed. Using a mini-extruder, unilamellar liposomes were prepared by passing each lipid mixture 21 times through a polycarbonate membrane of 100-nm pore size. Hydrated lipid mixtures were stored at −20 °C for up to 1 month; liposomes were freshly prepared for each experiment.
(§5) Flotation assays were conducted following the protocol previously described. Accudenz (Accurate Chemical and Scientific Corp., Westbury, NY) solutions (80 and 20% weight/vol) were prepared in HN buffer. To remove any particulate material, the protein to be tested was first centrifuged at 436,000 g at 4 °C for 15 min in a TL-100 ultracentrifuge using a Beckman TLA100.2 fixed angle rotor. Freshly prepared unilamellar liposomes (50 μl) were combined with 0.2 μg of the centrifuged protein and incubated at room temperature for 30 min. The entire liposome/protein mixture was then combined with 50 μl of 80% Accudenz at the bottom of an ultracentrifuge tube and carefully mixed to completion by pipetting. The resulting mixture was overlayered with […] of 20% Accudenz and then with 50 μl of HN buffer. Samples were centrifuged at 259,000 g at 4 °C for 30 min in the same ultracentrifuge using a Beckman TLS55 swinging bucket rotor. Gradients were then divided into four 100-μl fractions, which were carefully collected from the bottom of the tube using gel loading micropipette tips. Each fraction was analyzed for liposome and protein content using spectrophotometry (546-nm excitation/571-nm emission) and Western blot, respectively. Only those assays with at least 90% of the Liss Rhod PE marker recovered in the top fraction (fraction 1) were used for Western bloting analysis.
For Western bloting analysis, equal aliquots of each gradient fraction were denatured in 1× Laemmli sample buffer, fractionated on 15% acrylamide gels, and transferred to PVDF membranes. The protein content was detected using a custom-made rabbit antibody to the Sec14 domain of Kalirin (CT302[69], 1:3000) and an HRP-tagged goat anti-rabbit IgG (H + L) secondary antibody (catalog # 31460, 1:6000; ThermoFisher Scientific). SuperSignal West chemiluminescent substrate (Thermo Scientific) and a Syngene PXi digital imaging system (Synoptics Group) were used to visualize blots, with exposures adjusted to be in the linear range. After background subtraction, bands were quantified using the GeneSys software provided with the imaging system, and data were represented as a proportion of total protein recovered. Uncropped blots, quantification of each data point and exact P-values are provided in the Source Data file. […]
a. Representative Western blots from flotation assays with Kal Sec14 alone (Control), and Kal Sec14 with the control lipid mix (Lipo) or with the lipid mix containing the indicated additional lipid. After binding and separation of liposome bound Kal Sec14 from unbound Kal Sec14 on Accudenz gradients, the protein content of four gradient fractions was dete rmined by immunoblot; liposomes were recovered from the top fraction (fraction 1). Source data are […]

[6] = biological target: T1, KalbSec14; assay: as above
Experimental: Unilamellar liposomes formed by mixing synthetic dioleoyl phospholipids and cholesterol in proportions mimicking the membranes of the trans-Golgi network (Golgi-mixture) were incubated with Kal^bSec14. An Accudenz gradient was used to separate liposome-bound proteins, which were recovered from the top of the gradient (fraction 1), from unbound proteins, which remained at the bottom (fraction 4). Protein levels in each fraction were analyzed by Western blotting with an antibody to the Sec14 domain of Kalirin.
as §4, §5
For Western bloting analysis, equal aliquots of each gradient fraction were denatured in 1× Laemmli sample buffer, fractionated on 15% acrylamide gels, and transferred to PVDF membranes. The protein content was detected using a custom-made rabbit antibody to the Sec14 domain of Kalirin (CT302[69], 1:3000) and an HRP-tagged goat anti-rabbit IgG (H + L) secondary antibody (catalog # 31460, 1:6000; ThermoFisher Scientific). SuperSignal West chemiluminescent substrate (Thermo Scientific) and a Syngene PXi digital imaging system (Synoptics Group) were used to visualize blots, with exposures adjusted to be in the linear range.

[7] = biological target: α-TTP; set-up: method as in earlier work; conditions: quoted by reviewer as specific binding; ref 1 Panagabko, C. et al. Biochemistry 42, 6467–74 (2003); cited from earlier work
[8] = NMR titration, two-state binding model, mean ± S.D. of CSP data for individual residues, 25 °C, read-out: KD
[9] = source data of the global fitting, S.D. in the next column, read-out: KD, Ave of residue peaks
[10] = construct without Ex1B front peptide, NMR titration, mean ± S.D. over residues, 25 °C, read-out: KD
[11] = average, biological replication ≥ 3
[12] = individual experiments (Exp. 1-4)
[13] = mean of independent experiments, normalized to total protein recovered, test lipid 8% of liposome lipid

CCCCCCCCCCCCCCOP(=O)([O-])OCC[N+](C)(C)C [FC14, tetradecylphosphocholine]
Kd [1, 8]: 17.1 ± 4.9 µM | Kd [1, 9]: 17.1 µM | Kd [2, 10]: 35.6 ± 7.2 µM | Kd ([2]; read-out: KD of FC14 binding to KalSec14, Ave, average over residue peaks 1-24): 35.6 µM | Kd ([2]; read-out: KD of FC14 binding to KalSec14, fit of individual residue peak, residue peaks 1-24, ligand concentrations given in mM): 47.7 µM and 39.3 µM (2×) and 55.2 µM and 45.5 µM and 35.6 µM (3×) and 25.3 µM and 26.6 µM and 37.4 µM (4×) and 32.3 µM (3×) and 33.9 µM (3×) and 27.9 µM (2×) and 41.2 µM and 24.1 µM | Kd [3]: ~30 µM

L-α-phosphatidylinositol-4-phosphate [PI4P]
interaction of Kal^cSec14 with liposomes containing the lipid [4]: specifically interacts | Densitometry values for the Western blots, Fraction 1, Ave. [5, 11]: 0.06 | Densitometry values for the Western blots, Fraction 2, Ave. [5, 11]: 0.02 | Densitometry values for the Western blots, Fraction 3, Ave. [5, 11]: 0.13 | Densitometry values for the Western blots, Fraction 4, Ave. [5, 11]: 0.79 | Densitometry values for the Western blots, Fraction 1 [5, 12]: 0.08 and 0.06 and 0.0331 | Densitometry values for the Western blots, Fraction 2 [5, 12]: 0.00889 and 0.05 and 0.0021 | Densitometry values for the Western blots, Fraction 3 [5, 12]: 0.04 and 0.22 and 0.13 | Densitometry values for the Western blots, Fraction 4 [5, 12]: 0.87 and 0.67 and 0.84 | binding of Kal^bSec14 to liposomes containing the lipid ([6]; Golgi-mixture liposomes with 8% test lipid, result in words): does not interact | Fraction 1 protein content (top fraction, liposome-bound), densitometry, Ave. [6, 13]: 0.0251 | Fraction 2 protein content, densitometry, Ave. [6, 13]: 0.0079 | Fraction 3 protein content, densitometry, Ave. [6, 13]: 0.11 | Fraction 4 protein content (bottom fraction, unbound), densitometry, Ave. [6, 13]: 0.86 | Fraction 4 protein content (bottom fraction, unbound), densitometry ([6]; single experiments, normalized to total protein recovered, test lipid 8% of liposome lipid): 0.87 and 0.90 and 0.84 and 0.91 and 0.78

CCCCCCCCCCCCOP(=O)([O-])OCC[N+](C)(C)C [FC12, dodecylphosphocholine]
Kd [1, 8]: 245 ± 36 µM | Kd [1, 9]: 245 µM | Kd ([1]; source data of the global fitting, peaks numbered, residues not named, read-out: KD fitted for individual residue peaks): 198 µM and 290 µM and 295 µM and 203 µM and 213 µM and 217 µM and 232 µM and 242 µM and 245 µM and 277 µM and 286 µM | Kd [2, 10]: 514 ± 66 µM | Kd ([2]; read-out: KD of FC12 binding to KalSec14, Ave, average over residue peaks 1-20): 514 µM | Kd ([2]; read-out: KD of FC12 binding to KalSec14, fit of individual residue peak, residue peaks 1-20, ligand concentrations given in mM): 498 µM and 470 µM and 575 µM and 487 µM (2×) and 514 µM and 590 µM and 540 µM and 542 µM and 537 µM and 496 µM (2×) and 477 µM and 505 µM and 512 µM and 511 µM and 332 µM and 481 µM and 555 µM and 685 µM | Kd [3]: ~500 µM

Cc1c(C)c2c(c(C)c1O)CC[C@@](C)(CCC[C@H](C)CCC[C@H](C)CCCC(C)C)O2 [α-tocopherol]
Kd [7]: 0.025 µM
